Data set [1] in a line: GALMOF0 metabolic stability, incubation with rat liver microsomes. The class given is in vitro ADME. As for the experimental part:
GALMOF0 metabolic stability was determined through its incubation with rat liver microsomes and monitoring the disappearance of its chromatogram peak within 30 min.
The in vitro test was carried out in the presence of rat liver S9 fraction (Tebu-bio, Milan, Italy).
Briefly, GALMOF0 (10 μM) in 100 mM of phosphate buffer (pH=7.4) was mixed with the NADPH regeneration system to a final concentration of 1.3 mM NADP^+, 3.3 mM glucose 6-phosphate and 0.4 U/ml glucose 6-phosphate dihydrogenase and 3.3 mM MgCl2. The experiment started with the addition of rat microsomes (1 mg/ml) that were incubated for 30 min at 37° C. The reaction was blocked by adding an equal volume of cold CH3CN. The samples were centrifuged at 4,600 rpm for 15 min at 4° C. The supernatant was separated and the organic phase analysed by HPLC in the same conditions used for the samples of the “chemical stability study”.
The residual GALMOF0 percentage after 30 min was calculated according the following equation: Residual GALMOF0(%) at 30 min=Cmicr+NADPH/Cmicr×100 where Cmicr+NADPH is the GALMOF0 concentration after the incubation with the microsomes and the NADPH regeneration system (FIG. 8); Cmicr is the GALMOF0 concentration after the incubation with only the microsomes (FIG. 9).
(Liver microsomes are vesicles of endoplasmic reticulum, rich in cytochrome P450 enzymes.)

Another data set has as its system Caco-2 cells. The data set is described as follows: Caco-2 monolayer efflux assay, Apparent Permeability (Papp), with or without GLUT-1 inhibitor phloretin. Type of data set: in vitro ADME, Human. As for the experimental part: (§1) In a monolayer efflux assay, the Apparent Permeability (Papp) in both basolateral to apical [Papp(B→A)] and apical to basolateral [Papp(A→B)] directions was determined for each compound (FIG. 2). Human colonic adenocarcinoma cell line (Caco-2) presents a facilitated transport system at the apical and basolateral surface. Caco-2 cells express high levels of GLUT-1 that are localized to the basolateral membrane and transport glucose to the serosal side.
(§2) The Papp(B→A) flux of each compound alone or in the presence of phloretin, a GLUT-1 inhibitor, has been determined. Since GLUT-1 is express in the basolateral compartment a high B→A flux means that the transport is GLUT-1 mediated because B→A flux represents the active transport.
(§3) A→B flux, which represents the passive transport, has also been determined for each compound (Table 2).

Another data set deals with GLUT-1. The description is as above. The class given is in vitro ADME, Human. Conditions: human. As for the experimental part:
as §1, §2, §3

In data set [2] the target is COX-2 (Homo sapiens, UniProt P35354). The data set is described as follows: colorimetric COX Inhibitor screening Assay (peroxidase component, oxidized TMPD at 590 nm). Type of data set: biochemical. As for the experimental part:
Human cyclooxygenase inhibitory activity was determined by a colorimetric COX Inhibitor screening Assay which measures the peroxidase component of the cyclooxygenases, monitoring the appearance of oxidized N,N,N′,N′-tetramethyl-p-phenylenediamine (TMPD) at 590 nm.

Data set [3] can be described thus: GALMOF0 chemical stability in buffers by HPLC. The class given is physicochemical. Conditions: pH 1, 3, 7.3 and 8, 37° C., till 60 min. As for the experimental part: HPLC analyses were performed to determine the chemical stability and the purity grade of GALMOF0 as a representative compound of the set.
Aminica column was used, CH3CN/10 mM Tris-HCl (pH=8) (15:85) was used as mobile phase, T=40° C.; λ=254 nm.
200 μL of 2.5 mg/mL di GALMOF0 in CH3CN were added to 1800 μL of a buffer (pH=1, 3, 7.3 and 8). Each sample was kept stirred at 37° C. Buffer with pH=1 and 3, obtained with 0.1N HCl and 50 mM HEPES, was selected to simulate the chemical stability at gastric level, whereas pH=7.3 and 8, obtained by 50 mM TRIS-HCl, simulated its stability in the blood and gut, respectively.
At 15, 30, 60 min and 48 h, 300 μL of the sample were withdraw, diluted with 300 μL of CH3CN (final concentration=[…]) and tested by HPLC.

Data set [4] concerns the target COX-2 (Mus musculus (Mouse), UniProt Q05769). As to the kind of experiment: COX-2 expression in LPS-treated BV2 microglial cells, western blotting. The class given is cell-based. Conditions: LPS-stimulated BV2 cells. As for the experimental part: (§4) Cells were then incubated for different times at 37° C. with LPS, as pro-inflammatory stimulus. Experiments included cells grown in medium alone (control).
(§5) The tissue and cell culture lysates were vortexed for 15-20 s and, then, centrifuged at 12,800×g for 20 min. The protein concentration in the supernatant was spectrophotometrically determined by Bradford's protein assay (Bradford, 1976). Protein samples were diluted with sample buffer (0.5 M Tris-HCl pH=6.8, 10% glycerol, 10% (w/v) SDS, 5% 2-mercaptoethanol, 0.05% (w/v) bromophenol blue) and then boiled for 3 min. Proteins (25 μg/lane) and prestained standards (BioRad Laboratories, Hercules, CA, USA) were loaded on 7% or 12% SDS precast polyacrylamide gels (BioRad Laboratories).
After electrophoresis, the resolved proteins were transferred from the gel to nitrocellulose membranes. A blotting buffer [20 mMTris/150 mM glycine, pH=8.0, 20% (v/v) methanol] was used for gel and membrane saturation and blotting. […]
A general note: A western blot detects proteins with antibodies after separation by electrophoresis.

The next data set has as its system PGE2. As to the kind of experiment: PGE2 release in LPS-stimulated BV2 microglial cells, competitive binding immunoassay. The class given is cell-based. The settings on record: for PGE2 release (ng/ml) at 48 h: LPS-stimulated BV2 cells; for PGE2 production reduction: LPS-treated BV2 cells. As for the experimental part:
Microglial cells were cultured in 6-well plates at a density of 3×10^6 cells/well. […] The cultures were maintained at 37° C. for 24 and 48 h in a humidified air containing a 5% CO2. PGE2 levels were determined in the supernatant using a competitive binding immunoassay (Cayman Chemical, Ann Arbor, MI, USA) following the manufacturer's instructions. Unstimulated cells were included as a control. PGE2 amount determination in the brain was performed in the tissue extracts, according to the manufacturer's instructions. The optical density was measured at λ=405-420 nm with precision microplate reader and the amount of PGE2 (ng/mL) was calculated using a PGE2 standard curve.

The next data set deals with COX-1 (Mus musculus (Mouse), UniProt P22437). As to the kind of experiment: COX-1 expression in LPS-treated BV2 microglial cells, western blotting. The settings on record: for COX-1 expression reduction: LPS-activated BV2 cells. Type of data set: cell-based. As for the experimental part:
as §4, §5
After electrophoresis, the resolved proteins were transferred from the gel to nitrocellulose membranes. A blotting buffer [20 mMTris/150 mM glycine, pH=8.0, 20% (v/v) methanol] was used for gel and membrane saturation and blotting. Then, membranes were incubated in the dark with 1 μg/mL mouse monoclonal antibody (MoAb) anti-COX-1 and rabbit polyclonal Ab anti-COX-2 (1:1000) (both from AbCam, Cambridge, UK), rabbit polyclonal Ab anti p-IkB-α (1:200), mouse polyclonal Ab anti β-actin (1:500) (all from Santa Cruz Biotechnology), mouse MoAb anti-glial fibrillary acidic protein (GFAP) (1:200) and mouse mAb anti-ionized calcium-binding adapter molecule-1 (Iba-1) (1:200) (both from Merck Millipore) overnight at 4° C. The membranes were washed with 0.1% Tween 20-PBS (for 20 min, 3 times) and then incubated with the secondary antibody diluted 1:2000 for 60 min. Bands were visualized by chemiluminescence detection (Invitrogen, Milan, Italy). The β-actin level was used as a protein loading control. For tissue analysis, obtained bands were normalized to the level of β-actin performed for each cerebral area tested. For cell cultures the bands were normalized to the β-actin level in each experimental condition.

A further data set has as its system BV2 microglial cells. The data set is described as follows: BV2 microglial cell viability, MTT reduction assay. Type of data set: cell-based. Conditions: 24 h, P6 0.5 and 1 μM, mofezolac 0.1 and 0.5 μM, alone or with LPS. As for the experimental part: as §4
Cell viability of microglial cells was quantified using the MTT reduction assay. The cells (8×10^3/well) were grown in 96-well plates (Becton Dickinson Labware) in complete medium and treated with different concentration of COX inhibitors, in presence or absence of LPS. Untreated cells were used as a control. A PBS 1× solution of MTT (5 mg/mL) was prepared and added to the cell medium at a final concentration of 0.5 mg/mL. Cells were incubated for 4 h at 37° C. and 5% CO2 to allow the MTT metabolism. The formazan crystals formed (from MTT) into the cells were solubilized with DMSO (Sigma-Aldrich). The levels of MTT formazan were determined measuring the optical density at λ=560 nm and subtracting the background (λ=670 nm) with a Victor Multiplate Reader (Wallac). Optical density was directly correlated to cell quantity.

Experimental findings from US12011433B2 (UNIVERSITÁ DEGLI STUDI DI BARI “ALDO MORO”, priority 2016, dated 2024) are described below.

Like-named read-outs stand apart in the source and are kept apart here.

COX-2 (Homo sapiens, UniProt P35354), sequence (P35354 18-604 limits assumed): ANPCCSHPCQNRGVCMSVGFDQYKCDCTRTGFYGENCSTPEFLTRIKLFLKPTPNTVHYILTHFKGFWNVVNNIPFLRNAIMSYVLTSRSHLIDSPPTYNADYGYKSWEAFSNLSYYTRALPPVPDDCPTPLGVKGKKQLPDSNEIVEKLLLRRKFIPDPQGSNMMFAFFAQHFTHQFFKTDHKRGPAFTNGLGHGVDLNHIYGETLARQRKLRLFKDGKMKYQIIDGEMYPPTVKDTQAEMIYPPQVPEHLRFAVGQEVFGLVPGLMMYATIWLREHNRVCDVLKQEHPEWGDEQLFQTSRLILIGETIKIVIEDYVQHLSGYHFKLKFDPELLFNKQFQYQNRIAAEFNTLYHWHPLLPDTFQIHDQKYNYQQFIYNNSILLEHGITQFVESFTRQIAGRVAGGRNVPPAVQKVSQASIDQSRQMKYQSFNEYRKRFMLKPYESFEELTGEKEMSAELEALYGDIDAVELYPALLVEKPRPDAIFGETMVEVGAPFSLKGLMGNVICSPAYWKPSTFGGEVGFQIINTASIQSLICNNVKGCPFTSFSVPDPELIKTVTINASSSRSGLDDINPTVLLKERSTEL

By Papp A→B is commonly meant the apparent permeability from the apical to the basolateral side of a cell layer. As a reminder, the Papp B→A is how fast a substance crosses the layer from the basolateral side. Broadly, the inhibition is the change of the read-out against control, counted positive when it falls. High values mean a strong effect, low ones a weak effect. For orientation: IC50 means the concentration that inhibits the measured activity by half. Read a low IC50 as greater potency in that assay. As for `COc1ccc(-c2noc(CC(=O)OCC3OC(O)C(O)C(O)C3O)c2-c2ccc(OC)cc2)cc1` [GALMOF0, ((2S,3R,4S,6R)-3,4,5,6-tetrahydroxytetrahydro-2H-pyrano-2-yl-) methyl-(2-(3,4-di(4-metoxyphenyl)isoxazol-5-yl)acetate], the “Cmicr, concentration after the incubation” value in [1] (incubated with only the microsomes, 30 min) amounted to 70.51 mAU*s. Besides, the “Cmicr+NADPH, concentration after the incubation” value in data set [1] (incubated with the microsomes and the NADPH regeneration system, 30 min) stood at 68.02 mAU*s. Further, the “residual GALMOF0 after 30 min of treatment with microsomes” value in data set [1] (rat liver microsomes 1 mg/ml, NADPH regeneration system, 10 μM, 37° C.) stood at 96%. Further, the “Papp B → A, Phloretin” value with Caco-2 cells (in the presence of 100 mM Phloretin) worked out at 61 ×10⁻⁶ cm/s. Moreover, in the data set on Caco-2 cells (phloretin vs alone), the “reduction of the basolateral to apical flux (Papp B→A) in the presence of phloretin” value was 30%. Also, the Papp A→B with GLUT-1 (compound alone, read-out: Papp A → B) stood at 38 ×10⁻⁶ cm/s; with GLUT-1 (with phloretin (GLUT-1 inhibitor), in Phloretin, read-out: Papp A → B, Phloretin) it was 36.8 ×10⁻⁶ cm/s. Also, the Papp B→A with GLUT-1 (compound alone, read-out: Papp B → A) was 87.5 ×10⁻⁶ cm/s; with GLUT-1 (with phloretin (GLUT-1 inhibitor), in Phloretin, read-out: Papp B → A, Phloretin), 61 ×10⁻⁶ cm/s. At 50 µM the inhibition against COX-2 [2] (at 50 μM, the highest concentration tested) was 87%. Also, at COX-2 [2] (human cyclooxygenase), inhibition was half-maximal at 3.1 µM (IC50). Besides, in data set [3], the “chemical stability, chromatogram profile” value is given as “no variation of the chromatogram profile was observed”.
For `Cc1onc(-c2ccc(Cl)o2)c1-c1ccccc1` [Compound P6, 3-(5-chlorofuran-2-yl)-5-methyl-4-phenylisoxazole], the COX-2 protein levels entry at COX-2 [4] was “unaffected”. The “PGE2 release (ng/ml) at 48 h” value in the data set with PGE2 (0.5 μM inhibitor + LPS) was found to be 0.21 ng/mL; with PGE2 (1 μM inhibitor + LPS), 0.12 ng/mL. The PGE2 production reduction in the data set with PGE2 (at 0.5 μM as printed in the text) was found to be 78%; in the data set on PGE2 (at 1 μM as printed in the text) it was 88%. Further, the COX-1 expression levels entry at COX-1 (BV2 cells, 48 h of incubation with LPS, 1 h pre-treated) was “significantly reduced”. Moreover, the COX-1 expression reduction on COX-1 (0.5 μM) is recorded as 67%; at COX-1 (1.0 μM) it was 79%. The cell toxicity result with BV2 microglial cells is reported as “No cell toxicity”.
